Test results published in patent US20150351380A1, “TISSUE-PRESERVING LIQUID AND TISSUE-PRESERVING METHOD” (OSAKA UNIVERSITY, priority 2012, published 2015).

System: luciferase transgenic rat-derived oral mucosal cell sheet
Experiment: Residual ATP level in luciferase transgenic rat-derived oral mucosal cell sheet after preservation and post-preservation culture
Assay type: cell-based
Details: tBHQ in HBSS (1 μM, 10 μM, 100 μM)
Method: An oral tissue of a luciferase transgenic rat (Hakamata Y, Murakami T, Kobayashi E., Transplantation 2006; 81(8): 1179-1184) was provided by Dr. Eiji Kobayashi in the Division of Development of Advanced Treatment, Jichi Medical University. The oral tissue was washed twice with DMEM (Gibco) supplemented with 1% antibiotics and antimycotics (AbAm, Gibco). The washed tissue was immersed in a solution of dispase I (1,000 PU/ml) in DMEM supplemented with 1% AbAm at 4° C. for 4 hours. After the dispase treatment, the tissue was transferred into a 0.02% EDTA solution (nacalai tesque), immersed therein at room temperature for 2 minutes, and washed twice with PBS. […]
The ATP level in a cell sheet correlates with the viability of the cell sheet. The ATP levels in a cell sheet before preservation, after preservation and after post-preservation culture were measured as an indicator of the viability of the cell sheet. […] After this, the 96-well plate was set in a luminescence microplate reader Centro LB960 (Berthold Technologies GmbH & Co. KG), and according to the device settings of the microplate reader, addition of luciferin (final concentration; 0.19 mg/ml) and measurement of the ATP level were conducted. The measurement temperature was 4° C., the single reading time was 2 seconds, and the total reading time was 12 minutes. […]

SMILES: CC(C)(C)c1cc(O)ccc1O [tBHQ, tert-butylhydroquinone]
- residual ATP level after 7 days of preservation compared with HBSS without additive: higher
